Here are results for 15 compounds from US5158958A, “Imidazo[4,5-b]quinolinyl oxy alkyl sulfonyl piperidine derivatives” (Bristol-Myers Squibb Company, priority 1992, dated 1992).

The structures appear in SMILES notation. Counter-ions that a name gives are not always drawn.

The data set is described as follows: Aqueous solubility. In kind it is physicochemical. Conditions: water, compounds prepared as dihydrochloride salts.

One may read the solubility as the concentration that dissolves in the medium under given conditions. Turning to `CCC(CC)CN1CCC(S(=O)(=O)CCCCOc2ccc3[nH]c4nc(O)nc-4cc3c2)CC1` [l8e, 4[[3-[2,3-Dihydro-2-oxo-1H-imidazo[4.5-b]qouinolin-7-yloxy]butylsulfonyl]-1-(2-ethylbut-1-yl)piperidinedihydrochloride], the solubility was roughly 5000 µg/mL.

For `O=S(=O)(CCCOc1ccc2[nH]c3nc(O)nc-3cc2c1)C1CCNCC1` [Cmpd 17a, 4-[[3-[[(2-,3-Dihydro-2-oxo-1H-imidazo[4,5-b]guinolin7-yl)oxy]propylsulfonyl]piperidinedihydrochloride], the solubility is greater than 10000 µg/mL.

As for `O=S(=O)(CCCOc1ccc2[nH]c3nc(O)nc-3cc2c1)C1CCN(CC2CCCCO2)CC1` (stereo not drawn) [Cmpd 17k, 4[[2,3-Dihydro-2-oxo-1H-imidazo[4,5-b]quinolin-7-yl-pxy]propyl]sulfonyl]-1-[(tetrahydro-2H-pyran-2-yl)piperidine dihydrochloride], the solubility was greater than 10000 µg/mL.

`O=S(=O)(CCCCOc1ccc2[nH]c3nc(O)nc-3cc2c1)C1CCN(Cc2ccccc2)CC1` [Cmpd 18b, 4[[3-[2,3-Dihydro-2-oxo-1H-imidazo[4,5-b]quinolin-7-yloxyl]butylsulfonyl]-1-(phenylmethyl)piperidinedihydrochloride]: the solubility is roughly 5000 µg/mL.

On to `O=S(=O)(CCCCOc1ccc2[nH]c3nc(O)nc-3cc2c1)C1CCN(CC2CCCCC2)CC1` [Cmpd 18d, 1-(Cyclohexylmethyl)-4-[[3-[2,3-Dihydro-2-oxo-1H-imidaxo [4,5-b]quinolin-7-yloxy]butylsulfonylpiperidinedihydrochloride], for which the solubility is roughly 2000 µg/mL.

Regarding `O=S(=O)(CCCCOc1ccc2[nH]c3nc(O)nc-3cc2c1)C1CCNCC1` [Cmpd 18a, 4-[[2,3-Dihydro-2-oxo-1H-imidazo[4,5-b]quinolin-7-yloxy]butyl]sulfonyl]piperidine dihydrochloride], the solubility is greater than 10000 µg/mL.

Regarding `O=S(=O)(CCCOc1ccc2[nH]c3nc(O)nc-3cc2c1)C1CCN(CC2CCCCC2)CC1` [Cmpd 17d, 4-[[3-[2,3-Dihydro-2-oxo-1H-imidazo[4,5-b]quinolin-7-yl-oxy]propyl]sulfonyl]-(cyclohexylmethyl)piperidine dihydrochloride], the solubility is less than 10000 µg/mL.

For the compound `O=S(=O)(CCCOc1ccc2[nH]c3nc(O)nc-3cc2c1)C1CCN(Cc2cccc(C(F)(F)F)c2)CC1` [Cmpd 17i, 4-[3-[2,3-Dihydro-2-oxo1H-imidazo[4,5-b]quinolin-7-yl-oxy]propyl]sulfony]1-[(3-trifluoromethylhenvlmethyphenylmethyl]piperidine dihydrochloride], the solubility is less than 5000 µg/mL.

For `O=S(=O)(CCCOc1ccc2[nH]c3nc(O)nc-3cc2c1)C1CCN(CCC2CCCCC2)CC1` [Cmpd 17g, 1-(2-Cyclohexylethyl)-4-[[(3-[(2,3-dihydro-2-oxo-1H-imidazo[4,5-b]quinolin-7-yloxy]propyl]sulfonyl]piperidinedihydrochloride], the solubility is less than 5000 µg/mL.

Turning to `O=S(=O)(CCCOc1ccc2[nH]c3nc(O)nc-3cc2c1)C1CCN(CCc2ccccc2)CC1` [Cmpd 17h, 4-[[3-[2,3-Dihydro-2-oxo-1H-imidazo[4,5-b]quinolin-7-yl-oxy]propyl]sulfonyl]-b 1-(2-phenylethyl)piperidine dihydrochloride], the solubility was less than 5000 µg/mL.

In the case of `O=S(=O)(CCCOc1ccc2[nH]c3nc(O)nc-3cc2c1)C1CCN(Cc2ccc(F)cc2)CC1` [Cmpd 17c, 4-[[3-[2,3-Dihydro-2-oxo1H-imidazo[4,5-b]quinolin-7piperidinedihydrochloride], the solubility is greater than 10000 µg/mL.

As to `CCC(CC)CN1CCC(S(=O)(=O)CCCOc2ccc3nc4[nH]c(=O)[nH]c4cc3c2)CC1.Cl.Cl` [Cmpd 17e, 4-[[3-[2,3-Dihydro-2-oxo-1H-imidazo[4,5-b]quinolin-7yl-oxy]propyl]sulfonyl]1-(2-ethylbut-1yl)piperidine dihydrochloride], the solubility is less than 10000 µg/mL.

With `CC(C)CN1CCC(S(=O)(=O)CCCOc2ccc3[nH]c4nc(O)nc-4cc3c2)CC1` [Cmpd 17f, 4[[3-[2,3-Dihydro-2-oxo-1H-imidazo[4.5-b]quinolin-7yloxy]propyl]sulfonyll-1-(2-methylpropyl)piperidinedihydrochloride], the solubility is greater than 10000 µg/mL.

For the compound `O=S(=O)(CCCCOc1ccc2[nH]c3nc(O)nc-3cc2c1)C1CCN(Cc2ccc(F)cc2)CC1` [l8c, dihydrochloride], the solubility is roughly 2000 µg/mL.

Take `O=S(=O)(CCCOc1ccc2[nH]c3nc(O)nc-3cc2c1)C1CCN(Cc2ccccc2)CC1` [Cmpd 17b, 4-[[3-[2,3-Dihydro-2-oxy-1H-imidazo[4,5-b]quinolin-7-yloxy]propyl]sulfonyl]-1-(phenylmethyl)piperidine dihydrochloride]: the solubility is greater than 10000 µg/mL.
